For one test, the target named is T1, BRG1 (Homo sapiens, UniProt P51532).
T1 construct: either BRM primary antibody (Cell signaling Cat #11966) or BRG primary antibody (Abcam, ab 110641); endogenous in cells; host or cells: SW1573
Nature of the test: Immunofluorescence assay for BRG1 degradation in SW1573 cells. It counts as cell-based. The following applies: 20 hours incubation; for DC50: immunofluorescence mean nuclear signal, read-out: BRG1 IF Degradation IC50; for Dmax: SW1573, 20 h, normalized to a known degrader control, read-out: BRG1 IF Degradation Sinf (%). The essentials: (§1)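 Imaging-based readout in SW1573: 20 h dosing, formaldehyde fixation, antibody staining for either remodeler, nuclear intensity per cell quantified. Values normalized to control degrader; floating-maximum fit.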

In another test the target is BRM (Homo sapiens, UniProt P51531). Nature of the test: Immunofluorescence assay for BRM degradation in SW1573 cells. It counts as cell-based. Also noted: treated overnight at 4° C. with either BRM primary antibody (Cell signaling Cat #11966) or BRG primary antibody; endogenous in cells; host or cells: SW1573. The following applies: 20 hours incubation; for DC50: immunofluorescence mean nuclear signal, read-out: BRM IF Degradation IC50; for BRM IF Degradation Sinf (%): normalized to a known degrader control. The essentials:
as §1

Results on 18 compounds are retold here after patent US11993599B2, “Therapeutic compounds” (Genentech, Inc., priority 2021, dated 2024).

Bounds are passed on as bounds.

T1 sequence (P51532 whole entry): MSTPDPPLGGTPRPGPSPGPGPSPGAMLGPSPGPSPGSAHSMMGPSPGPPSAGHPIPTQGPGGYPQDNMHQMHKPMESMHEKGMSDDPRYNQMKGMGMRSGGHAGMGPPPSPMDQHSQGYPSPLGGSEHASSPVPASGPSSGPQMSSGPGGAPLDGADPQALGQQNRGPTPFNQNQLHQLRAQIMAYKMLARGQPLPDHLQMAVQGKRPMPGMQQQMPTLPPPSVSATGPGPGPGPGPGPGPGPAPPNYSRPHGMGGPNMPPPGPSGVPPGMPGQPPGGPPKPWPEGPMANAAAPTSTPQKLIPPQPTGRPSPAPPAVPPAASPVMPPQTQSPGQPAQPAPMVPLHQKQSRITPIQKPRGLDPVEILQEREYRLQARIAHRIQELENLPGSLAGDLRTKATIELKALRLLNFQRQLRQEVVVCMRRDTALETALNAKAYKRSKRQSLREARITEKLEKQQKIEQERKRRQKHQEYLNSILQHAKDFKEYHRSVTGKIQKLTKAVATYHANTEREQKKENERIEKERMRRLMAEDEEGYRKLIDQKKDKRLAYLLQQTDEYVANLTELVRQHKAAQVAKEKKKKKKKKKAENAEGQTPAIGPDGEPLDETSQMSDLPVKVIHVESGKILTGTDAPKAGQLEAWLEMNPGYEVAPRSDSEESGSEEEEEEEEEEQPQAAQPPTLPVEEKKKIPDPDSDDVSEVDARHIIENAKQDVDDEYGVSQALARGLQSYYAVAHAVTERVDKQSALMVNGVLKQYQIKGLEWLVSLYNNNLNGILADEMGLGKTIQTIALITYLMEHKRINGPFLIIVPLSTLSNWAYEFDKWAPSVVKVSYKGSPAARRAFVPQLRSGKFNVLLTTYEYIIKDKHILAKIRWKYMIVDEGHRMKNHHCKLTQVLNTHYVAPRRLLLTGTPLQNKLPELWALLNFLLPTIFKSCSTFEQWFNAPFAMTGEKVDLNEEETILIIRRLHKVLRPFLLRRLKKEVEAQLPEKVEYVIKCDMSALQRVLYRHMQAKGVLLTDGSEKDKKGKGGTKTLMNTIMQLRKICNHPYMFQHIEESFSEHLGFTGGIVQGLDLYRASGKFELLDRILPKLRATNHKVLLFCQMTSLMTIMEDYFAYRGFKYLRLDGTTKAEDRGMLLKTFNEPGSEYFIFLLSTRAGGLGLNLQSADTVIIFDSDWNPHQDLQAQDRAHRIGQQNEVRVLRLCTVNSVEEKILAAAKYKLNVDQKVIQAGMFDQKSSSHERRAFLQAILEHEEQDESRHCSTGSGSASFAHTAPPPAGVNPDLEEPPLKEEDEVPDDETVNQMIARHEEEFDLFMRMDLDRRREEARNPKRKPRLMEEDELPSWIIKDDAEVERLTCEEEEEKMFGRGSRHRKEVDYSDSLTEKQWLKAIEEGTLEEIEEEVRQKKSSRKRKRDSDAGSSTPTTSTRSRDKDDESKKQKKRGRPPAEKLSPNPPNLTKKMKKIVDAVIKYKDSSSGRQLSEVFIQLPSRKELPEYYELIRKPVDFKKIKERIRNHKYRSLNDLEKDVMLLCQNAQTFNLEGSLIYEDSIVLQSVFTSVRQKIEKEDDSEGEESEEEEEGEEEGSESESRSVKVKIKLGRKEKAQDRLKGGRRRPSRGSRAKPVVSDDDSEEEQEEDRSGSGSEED
BRM, sequence (P51531 whole entry): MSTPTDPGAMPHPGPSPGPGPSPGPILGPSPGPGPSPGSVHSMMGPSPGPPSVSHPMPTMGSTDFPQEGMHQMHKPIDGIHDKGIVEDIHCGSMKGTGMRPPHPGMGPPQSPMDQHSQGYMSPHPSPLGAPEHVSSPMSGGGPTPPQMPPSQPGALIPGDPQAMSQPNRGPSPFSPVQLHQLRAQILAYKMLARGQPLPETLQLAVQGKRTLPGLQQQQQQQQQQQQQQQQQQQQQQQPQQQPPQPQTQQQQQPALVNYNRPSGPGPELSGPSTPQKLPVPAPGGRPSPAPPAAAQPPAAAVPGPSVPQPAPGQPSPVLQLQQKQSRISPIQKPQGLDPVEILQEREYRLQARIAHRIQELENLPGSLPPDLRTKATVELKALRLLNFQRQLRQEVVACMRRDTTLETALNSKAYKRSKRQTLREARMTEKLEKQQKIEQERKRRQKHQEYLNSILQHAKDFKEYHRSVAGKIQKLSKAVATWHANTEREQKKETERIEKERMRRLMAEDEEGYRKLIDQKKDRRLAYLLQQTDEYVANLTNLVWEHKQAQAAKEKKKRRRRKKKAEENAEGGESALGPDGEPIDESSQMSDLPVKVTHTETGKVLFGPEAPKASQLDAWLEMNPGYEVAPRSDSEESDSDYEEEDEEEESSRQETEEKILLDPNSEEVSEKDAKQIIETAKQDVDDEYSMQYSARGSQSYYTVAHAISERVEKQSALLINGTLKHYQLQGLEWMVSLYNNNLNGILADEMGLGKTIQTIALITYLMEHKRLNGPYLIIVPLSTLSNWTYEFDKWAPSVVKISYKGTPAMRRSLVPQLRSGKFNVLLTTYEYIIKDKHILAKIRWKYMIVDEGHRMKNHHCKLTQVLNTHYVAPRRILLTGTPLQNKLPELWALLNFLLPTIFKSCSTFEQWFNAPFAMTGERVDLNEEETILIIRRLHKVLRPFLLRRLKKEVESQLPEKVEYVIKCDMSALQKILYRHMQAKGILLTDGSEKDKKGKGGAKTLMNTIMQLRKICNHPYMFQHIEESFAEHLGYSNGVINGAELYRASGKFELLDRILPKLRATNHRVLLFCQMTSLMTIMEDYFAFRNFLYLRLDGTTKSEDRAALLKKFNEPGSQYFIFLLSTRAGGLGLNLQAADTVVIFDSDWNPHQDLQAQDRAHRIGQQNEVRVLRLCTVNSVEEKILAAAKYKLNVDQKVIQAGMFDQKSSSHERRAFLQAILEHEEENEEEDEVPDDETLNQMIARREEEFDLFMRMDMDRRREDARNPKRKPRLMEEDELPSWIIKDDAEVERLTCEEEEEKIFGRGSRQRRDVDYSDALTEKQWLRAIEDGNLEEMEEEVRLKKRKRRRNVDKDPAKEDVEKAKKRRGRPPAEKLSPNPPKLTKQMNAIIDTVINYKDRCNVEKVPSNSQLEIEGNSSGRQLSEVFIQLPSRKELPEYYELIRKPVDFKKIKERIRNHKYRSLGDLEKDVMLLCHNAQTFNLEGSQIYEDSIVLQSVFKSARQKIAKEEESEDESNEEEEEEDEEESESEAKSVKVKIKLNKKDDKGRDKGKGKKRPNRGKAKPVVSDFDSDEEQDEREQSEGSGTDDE

For the compound `CO[C@H]1CCN(CC#Cc2cc(N3C4CCC3CN(c3cc(-c5ccccc5O)nnc3N)C4)ccn2)C1` [Compound 128, 2-[6-amino-5-[8-[2-[3-[(3S)-3-methoxypyrrolidin-1-yl]prop-1-ynyl]-4-pyridyl]-3,8-diazabicyclo[3.2.1]octan-3-yl]pyridazin-3-yl]phenol], on BRG1, the DC50 was < 10 nM and the Dmax lay within 30 to 70%. Also, at BRM, the DC50 lay in the range of 10 to 100 nM and the “BRM IF Degradation Sinf (%)” value is “F (F indicates −71%-−120%)”.
For `Nc1nnc(-c2ccccc2O)cc1N1CC2CCC(C1)N2c1ccnc(C#CCN2CCC3(CCC3)C2)c1` [Compound 129, 2-[6-amino-5-[8-[2-[3-(6-azaspiro[3.4]octan-6-yl)prop-1-ynyl]-4-pyridyl]-3,8-diazabicyclo[3.2.1]octan-3-yl]pyridazin-3-yl]phenol] the same measures were < 10 nM, 30 to 70%, < 10 nM and “E (E indicates −30%-−70%)”.
For the compound `Nc1nnc(-c2ccccc2O)cc1N1CC2CCC(C1)N2c1ccnc(C#CCN2C[C@@H]3C[C@H]2C[C@H]3O)c1` [Compound 130, (1S,4S,5R)-2-[3-[4-[3-[3-amino-6-(2-hydroxyphenyl)pyridazin-4-yl]-3,8-diazabicyclo[3.2.1]octan-8-yl]-2-pyridyl]prop-2-ynyl]-2-azabicyclo[2.2.1]heptan-5-ol], on BRG1, the DC50 was in the range of 10 to 100 nM and the Dmax is 30 to 70%. For the same compound, on BRM, the DC50 is < 10 nM and the “BRM IF Degradation Sinf (%)” value is reported as “E (E indicates −30%-−70%)”.
In the case of `Nc1nnc(-c2ccccc2O)cc1N1CC2CCC(C1)N2c1ccnc(C#CCN2CCC(F)CC2)c1` [Compound 131, 2-[6-amino-5-[8-[2-[3-(4-fluoro-1-piperidyl)prop-1-ynyl]-4-pyridyl]-3,8-diazabicyclo[3.2.1]octan-3-yl]pyridazin-3-yl]phenol], at BRG1, the DC50 is < 10 nM and the Dmax lay within 0 to 30%. Also, on BRM, the DC50 was < 10 nM and the “BRM IF Degradation Sinf (%)” value is “E (E indicates −30%-−70%)”.
`Nc1nnc(-c2ccccc2O)cc1N1CC2CCC(C1)N2c1ccnc(C#CCN2CC3CC2CO3)c1` (stereo not drawn) [Compound 132, 2-[6-amino-5-[8-[2-[3-(2-oxa-5-azabicyclo[2.2.1]heptan-5-yl)prop-1-ynyl]-4-pyridyl]-3,8-diazabicyclo[3.2.1]octan-3-yl]pyridazin-3-yl]phenol]: on BRG1, the DC50 is < 10 nM and the Dmax is 30 to 70%. Further, at BRM, the DC50 is < 10 nM and the “BRM IF Degradation Sinf (%)” value is “E (E indicates −30%-−70%)”.
`Nc1nnc(-c2ccccc2O)cc1N1CC2CCC(C1)N2c1ccnc(C#CCN2CCC(F)C2)c1` (stereo not drawn) [Compound 133, 2-[6-amino-5-[8-[2-[3-(3-fluoropyrrolidin-1-yl)prop-1-ynyl]-4-pyridyl]-3,8-diazabicyclo[3.2.1]octan-3-yl]pyridazin-3-yl]phenol]: at BRG1, the DC50 is < 10 nM and the Dmax was 0 to 30%. On BRM, the DC50 is < 10 nM and the “BRM IF Degradation Sinf (%)” value was “E (E indicates −30%-−70%)”.
As for `Nc1nnc(-c2ccccc2O)cc1N1CC2CCC(C1)N2c1ccnc(C#CCN2CCCC(CO)C2)c1` (stereo not drawn) [Compound 134, 2-[6-amino-5-[8-[2-[3-[3-(hydroxymethyl)-1-piperidyl]prop-1-ynyl]-4-pyridyl]-3,8-diazabicyclo[3.2.1]octan-3-yl]pyridazin-3-yl]phenol], on BRG1, the DC50 was in the range of 10 to 100 nM and the Dmax lay in the range of 30 to 70%. Moreover, on BRM, the DC50 was 10 to 100 nM and the “BRM IF Degradation Sinf (%)” value was “E (E indicates −30%-−70%)”.
Turning to `CC1(C)CN(CC#Cc2cc(N3C4CCC3CN(c3cc(-c5ccccc5O)nnc3N)C4)ccn2)C1` [Compound 135, 2-[6-amino-5-[8-[2-[3-(3,3-dimethylazetidin-1-yl)prop-1-ynyl]-4-pyridyl]-3,8-diazabicyclo[3.2.1]octan-3-yl]pyridazin-3-yl]phenol], on BRG1, the DC50 was < 10 nM and the Dmax fell in the range of 30 to 70%. Also, on BRM, the DC50 is < 10 nM and the “BRM IF Degradation Sinf (%)” value is “E (E indicates −30%-−70%)”.
Take `Nc1nnc(-c2ccccc2O)cc1N1CC2CCC(C1)N2c1ccnc(C#CCN2CCC3(CC2)CC3)c1` [Compound 136, 2-(5-(8-(2-(3-(6-azaspiro[2.5]octan-6-yl)prop-1-yn-1-yl)pyridin-4-yl)-3,8-diazabicyclo[3.2.1]octan-3-yl)-6-aminopyridazin-3-yl)phenol]: at BRG1, the DC50 is < 10 nM and the Dmax fell in the range of 30 to 70%. Also, on BRM, the DC50 was < 10 nM and the “BRM IF Degradation Sinf (%)” value was “E (E indicates −30%-−70%)”.
`Nc1nnc(-c2ccccc2O)cc1N1CC2CCC(C1)N2c1ccnc(C#CCN2CC3CC3(CO)C2)c1` (stereo not drawn) [Compound 137, 2-[6-amino-5-[8-[2-[3-[1-(hydroxymethyl)-3-azabicyclo[3.1.0]hexan-3-yl]prop-1-ynyl]-4-pyridyl]-3,8-diazabicyclo[3.2.1]octan-3-yl]pyridazin-3-yl]phenol]: on BRG1, the DC50 is < 10 nM and the Dmax was 30 to 70%. At BRM, the DC50 is < 10 nM and the “BRM IF Degradation Sinf (%)” value was “E (E indicates −30%-−70%)”.
In the case of `CC1CCN(CC#Cc2cc(N3C4CCC3CN(c3cc(-c5ccccc5O)nnc3N)C4)ccn2)CC1` [Compound 138, 2-[6-amino-5-[8-[2-[3-(4-methyl-1-piperidyl)prop-1-ynyl]-4-pyridyl]-3,8-diazabicyclo[3.2.1]octan-3-yl]pyridazin-3-yl]phenol], at BRG1, the DC50 was < 10 nM and the Dmax fell in the range of 30 to 70%. Besides, on BRM, the DC50 fell in the range of 10 to 100 nM and the “BRM IF Degradation Sinf (%)” value is given as “E (E indicates −30%-−70%)”.
Taken in the same sequence, the figures for `N#CC1CCN(CC#Cc2cc(N3C4CCC3CN(c3cc(-c5ccccc5O)nnc3N)C4)ccn2)CC1` [Compound 139, 1-[3-[4-[3-[3-amino-6-(2-hydroxyphenyl)pyridazin-4-yl]-3,8-diazabicyclo[3.2.1]octan-8-yl]-2-pyridyl]prop-2-ynyl]piperidine-4-carbonitrile] were 10 to 100 nM, 0 to 30%, < 10 nM and “E (E indicates −30%-−70%)”.
Taken in the same sequence, the figures for `Nc1nnc(-c2ccccc2O)cc1N1CC2CCC(C1)N2c1ccnc(C#CCN2CCC3(CCOC3)C2)c1` (stereo not drawn) [Compound 140, 2-[6-amino-5-[8-[2-[3-(2-oxa-7-azaspiro[4.4]nonan-7-yl)prop-1-ynyl]-4-pyridyl]-3,8-diazabicyclo[3.2.1]octan-3-yl]pyridazin-3-yl]phenol] were < 10 nM, 30 to 70%, < 10 nM and “F (F indicates −71%-−120%)”.
Taken in the same sequence, the figures for `Nc1nnc(-c2ccccc2O)cc1N1CC2CCC(C1)N2c1ccnc(C#CCN2CC3CCC2C3)c1` (stereo not drawn) [Compound 141, 2-[6-amino-5-[8-[2-[3-(2-azabicyclo[2.2.1]heptan-2-yl)prop-1-ynyl]-4-pyridyl]-3,8-diazabicyclo[3.2.1]octan-3-yl]pyridazin-3-yl]phenol] were < 10 nM, 30 to 70%, < 10 nM and “E (E indicates −30%-−70%)”.
On to `Nc1nnc(-c2ccccc2O)cc1N1CC2CCC(C1)N2c1ccnc(C#CCN2CC(O)C2)c1` [Compound 142, 1-[3-[4-[3-[3-amino-6-(2-hydroxyphenyl)pyridazin-4-yl]-3,8-diazabicyclo[3.2.1]octan-8-yl]-2-pyridyl]prop-2-ynyl]azetidin-3-ol], for which, on BRG1, the DC50 was 10 to 100 nM and the Dmax lay within 30 to 70%. Also, at BRM, the DC50 fell in the range of 10 to 100 nM and the “BRM IF Degradation Sinf (%)” value was “E (E indicates −30%-−70%)”.
Regarding `Nc1nnc(-c2ccccc2O)cc1N1CC2CCC(C1)N2c1ccnc(C#CCN2CC3CC2CC3(F)F)c1` (stereo not drawn) [Compound 143, 2-[6-amino-5-[8-[2-[3-(5,5-difluoro-2-azabicyclo[2.2.1]heptan-2-yl)prop-1-ynyl]-4-pyridyl]-3,8-diazabicyclo[3.2.1]octan-3-yl]pyridazin-3-yl]phenol], on BRG1, the DC50 was < 10 nM and the Dmax lay in the range of 0 to 30%. For the same compound, at BRM, the DC50 was < 10 nM and the “BRM IF Degradation Sinf (%)” value is reported as “E (E indicates −30%-−70%)”.
Turning to `Nc1nnc(-c2ccccc2O)cc1N1CC2CCC(C1)N2c1ccnc(C#CCN2C3COCC2CC(F)C3)c1` (stereo not drawn) [Compound 144, 2-[6-amino-5-[8-[2-[3-(7-fluoro-3-oxa-9-azabicyclo[3.3.1]nonan-9-yl)prop-1-ynyl]-4-pyridyl]-3,8-diazabicyclo[3.2.1]octan-3-yl]pyridazin-3-yl]phenol], on BRG1, the DC50 was in the range of 10 to 100 nM and the Dmax lay in the range of 0 to 30%. Besides, on BRM, the DC50 is > 100 nM and the “BRM IF Degradation Sinf (%)” value is given as “E (E indicates −30%-−70%)”.
For the compound `Nc1nnc(-c2ccccc2O)cc1N1CC2CCC(C1)N2c1ccnc(C#CCN2CCC3OCCC3C2)c1` (stereo not drawn) [Compound 145, 2-[5-[8-[2-[3-(3,3a,4,6,7,7a-hexahydro-2H-furo[3,2-c]pyridin-5-yl)prop-1-ynyl]-4-pyridyl]-3,8-diazabicyclo[3.2.1]octan-3-yl]-6-amino-pyridazin-3-yl]phenol], at BRG1, the DC50 was < 10 nM and the Dmax is 0 to 30%. Moreover, on BRM, the DC50 was < 10 nM and the “BRM IF Degradation Sinf (%)” value was “E (E indicates −30%-−70%)”.
